Assays:
Huh7 cells [1] = test: Inhibitor pre-treatment, then Neuraminidase from Vibrio cholera, then AAV transduction; type: cell-based, human; details: 2 mM inhibitor 24 h, then 2 h Neuraminidase from Vibrio cholera
Procedure: Briefly, 10,000 cells per well were plated in 96-well plates 1 day prior to inhibitor treatment. Cells were incubated with the indicated concentration of Zanamivir (Sigma SML0492) or DANA (EMD Millipore 252926) for 24 hours prior to transduction in a total volume of 100 μL D10. When indicated, control or inhibitor treated cells were treated with 50 mU/mL Neuraminidase from Vibrio cholera Type III (Sigma Aldrich, Cat#N7885) in serum-free DMEM, followed by AAV transduction as described.
Because NEU1 and CTSA play a role in cellular glycosylation states, confirmation was desired that the entry defect was not due to an overall alteration in glycosylation at the cell surface, leading to an attachment, defect. To do this, cells were first pre-treated for 24 h with Zanamivir or DANA, followed by treatment with a neuraminidase from Vibrio cholera to remove any sialic acid that may have accumulated at the cell surface due to NEU1 inhibition.
The indicated pre-chilled vector was then added to cells on ice, incubated for 1 hour for the vectors to undergo attachment, unbound vector was washed away using ice-cold PBS, then transduction was allowed to proceed and vector transduction assessed in the different treatment conditions by fold-change relative to untreated control cells via luciferase assay. […]

Huh7 cells [2] = test: Neuraminidase inhibitor pre-treatment of Huh7 cells followed by AAV transduction (luciferase); type: cell-based, human; details: for effect on transduction, short pre-treatment: 1 hour pre-treatment; for effect on AAV4 entry / effect on AAV5 transduction / effect on Anc80 transduction / decrease of rh32.33 transduction: 24 hours pre-treatment, 10,000 VG/cell; for decrease of rh32.33 transduction: CMV.Luciferase.SVPA
Procedure: All luciferase transduction assays were done by seeding 10,000 cells per well in black-bottom 96 well plates overnight. When indicated, cells were pre-incubated with 200 pfu/cell of WT hAd5 (University of Pennsylvania Vector core) in D10 for two hours, then hAd5-containing medium was removed prior to transduction. Cells were transduced with either AAV at 1×10^4 VG/cell in 50 μL serum-free DMEM (AAVR rescue experiments) for 1 h at 37° C., then D10 was added to a total volume of 200 μL, or 100 μl per well of crude virus prep (chimeric, and point mutant capsid experiments) was added for 1 h at 37° C., removed, then D10 was added. Transduction levels were analyzed by luciferase assay 48 hours post-transduction.
Two days post-transduction, cell culture medium was removed and cells were lysed in 20 μL per well of 1× Reporter Lysis Buffer (Promega, Cat#), then frozen at −80° C. After thaw, ffLuc expression was measured in Relative Light Units/s on a Synergy H1 Hybrid Multi-Mode Microplate reader using 100 μL luciferin buffer [200 mM Tris pH 8, 10 mM MgCl2, 300 μM ATP, 1× Firefly Luciferase signal enhancer (Thermo Cat#16180), and 150 μg/mL D-Luciferin].
Because NEU1 is an enzyme and CTSA, also identified in the entry screen (FIG. 5C), is required for maintaining the catalytically active conformation of NEU1 (D'Azzo et al., 1982, PNAS USA, 79:4535-9; and Vinogradova et al., 1998, Biochem. J. 330(Pt 2):641-50), whether enzymatic activity of NEU1 is required for its function was tested in rh32.33 and AAV4 entry. Two different sialic acid analog neuraminidase inhibitor compounds were used, Zanamivir (von Itzstein et al., 1993, Nature, 363:418-23) and DANA (Meindl et al., 1974, Virology, 58:457-63), to do a dose response on Huh7 cells and assess the effect on entry of different AAVR dependent and AAVR independent serotypes. Two different AAVR-dependent serotypes, AAV5 and Anc80, and two AAVR-independent serotypes, rh32.33 and AAV4, were tested. Importantly, AAV4 and AAV5 were examined because both AAVs use sialic acid as an attachment factor (Kaludov et al., 2001, J. Virol., 75:6884-93; and Walters et at, 2001, J. Biol. Chem., 276:20610-6) yet differ in their AAVR dependence.
Briefly, 10,000 cells per well were plated in 96-well plates 1 day prior to inhibitor treatment. […] When indicated, control or inhibitor treated cells were treated with 50 mU/mL Neuraminidase from Vibrio cholera Type III (Sigma Aldrich, Cat#N7885) in serum-free DMEM, followed by AAV transduction as described.

## CC(=O)N[C@H]1[C@H]([C@H](O)[C@H](O)CO)OC(C(=O)O)=C[C@@H]1O [DANA]
Huh7 cells [1]
  reversal of rh32.33 entry inhibition after neuraminidase treatment: a reversal of entry inhibition was not observed
Huh7 cells [2]
  effect on transduction, short pre-treatment: did not show any decrease in transduction
  effect on AAV4 entry: slightly decreased AAV4 entry
  effect on AAV5 transduction: Neither of the AAVR-dependent serotypes, AAV5 or Anc80, showed a decrease in transduction
  effect on Anc80 transduction: Neither of the AAVR-dependent serotypes, AAV5 or Anc80, showed a decrease in transduction
  decrease of rh32.33 transduction: roughly ten-fold

## CC(=O)N[C@H]1[C@H]([C@H](O)[C@H](O)CO)OC(C(=O)O)=C[C@@H]1N=C(N)N [Zanamivir]
Huh7 cells [1]
  reversal of rh32.33 entry inhibition after neuraminidase treatment: a reversal of entry inhibition was not observed
Huh7 cells [2]
  effect on transduction, short pre-treatment: did not show any decrease in transduction
  effect on AAV4 entry: slightly decreased AAV4 entry
  effect on AAV5 transduction: Neither of the AAVR-dependent serotypes, AAV5 or Anc80, showed a decrease in transduction
  effect on Anc80 transduction: Neither of the AAVR-dependent serotypes, AAV5 or Anc80, showed a decrease in transduction
  decrease of rh32.33 transduction: roughly ten-fold
